Assay results reported in patent US7041665B2, “Benzoxazinone derivatives, their preparation and use as medicaments” (Laboratories del Dr. Esteve, S.A., priority 2002, dated 2006).
Counter-ions that a name gives are not always drawn.

How the values were obtained:
[1] = target: T1, Neuropeptide Y5 (Rattus norvegicus, UniProt Q63634); assay: Binding to Neuropeptide Y5, [125I]-PYY(3-36), BIBP 3226 sat., rat cortex membranes; details: radioligand [125I]-PYY3-36, 1 μM BIBP 3226 to saturate Y1, 25° C., 120 minutes
T1 construct: their brains are rapidly removed and the cortex is dissected; from tissue; host or cells: rat brain cortex membranes (male Wistar rats)
T1 sequence (Q63634 1-445): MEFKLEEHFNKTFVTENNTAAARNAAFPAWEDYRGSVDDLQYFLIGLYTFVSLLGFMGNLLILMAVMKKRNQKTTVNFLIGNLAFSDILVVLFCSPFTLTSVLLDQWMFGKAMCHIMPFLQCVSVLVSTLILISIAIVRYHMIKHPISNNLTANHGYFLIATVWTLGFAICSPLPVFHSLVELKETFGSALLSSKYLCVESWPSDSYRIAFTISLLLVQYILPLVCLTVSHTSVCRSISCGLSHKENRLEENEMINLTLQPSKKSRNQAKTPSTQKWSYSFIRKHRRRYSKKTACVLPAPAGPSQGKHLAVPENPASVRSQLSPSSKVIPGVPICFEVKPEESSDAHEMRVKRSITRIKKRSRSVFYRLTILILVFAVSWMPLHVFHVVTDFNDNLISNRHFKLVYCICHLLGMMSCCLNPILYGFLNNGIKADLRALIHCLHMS
Procedure: Binding to Neuropeptide Y5
(§1) Male Wistar rats are sacrificed by decapitation, their brains are rapidly removed and the cortex is dissected. Homogenization is performed in cold conditions in the buffer: 120 mM NaCl, 4.7 mM KCl, 2.2 mM CaCl2, 1.2 mM KH2PO4, 1.2 mM MgSO4, 25 mM NaHCO3, 5.5 mM glucose, pH 7.4, by means of a Ultra-Turrax homogenizer for 15 seconds at 13,500 rpm. The ratio between fresh tissue weight and buffer volume is of twenty times. The membrane is centrifuged for 10 min at 48,000 g. The supernatant is discarded and the pellet is washed, resuspended and recentrifuged three more times. The final membrane resuspension is performed in the buffer: 120 mM NaCl, 4.7 mM KCl, 2.2 mM CaCl2, 1.2 mM KH2PO4, 1.2 mM MgSO4, 25 mM NaHCO3, 5.5 mM glucose, 0.1% BSA, 0.05% bacitracin, pH 7.4, at a ratio of 20 ml/g fresh tissue. […] Incubation volume: 500 μl. […] The filters are cold-washed three times with two milliliters of the same buffer used in homogenization. […] Non-specific binding is determined in the presence of 1 μM of pNPY (porcin Neuropeptide Y). The assays are performed in triplicate.

[2] = tested on: male Wistar rats; assay: Nocturnal ingestion test; type: in vivo, rat; details: intra-peritoneal, compared to control group
Procedure: Measurement of the Intake in Animal Models
The animals employed were male Wistar rats (200–270 g) supplied by Harlan, S. A. The acclimatization period in our stable before being used in the experimental trials was at least 5 days. In this time the animals were stabled in groups of 5 in translucid cages, with water and food ad libitum. The animals were acclimatized to individual stabling at least 24 hours before conducting the experiment.
The test is carried out in the animal's cage in order to minimize the stress implied in a change of cage, which could affect the intake. Water and food are available at all times ad libitum. Immediately before turning out the lights in the room the animals are weighed and randomly assigned to a treatment group (vehicle or product under study). Immediately after the administration the rats are returned to their cages, where a known amount of food had been placed. The following morning the amount of food remaining in each cage was weighed, and the animals were again weighed.
References: Ants Kask et al., Journal of Pharmacology, 414 (2001) 215–224; Andrew V. Turnbull et al., Diabetes, Vol. 51, August 2002
Effect of Some Compounds of the Invention on Nocturnal Ingestion in Male Wistar Rats (Intra-Peritoneal Administration)

[3] = target: T2, Neuropeptide Y2 (Rattus norvegicus, UniProt Q9ERC0); assay: Binding to Neuropeptide Y2, [125I]-PYY(3-36), rat hypoccampus membranes; details: radioligand [125I]-PYY3-36, 25° C., 150 minutes
T2 construct: their brains are rapidly removed and the hypoccampus is dissected; from tissue; host or cells: rat hippocampus membranes (male Wistar rats)
T2 sequence (Q9ERC0 1-381): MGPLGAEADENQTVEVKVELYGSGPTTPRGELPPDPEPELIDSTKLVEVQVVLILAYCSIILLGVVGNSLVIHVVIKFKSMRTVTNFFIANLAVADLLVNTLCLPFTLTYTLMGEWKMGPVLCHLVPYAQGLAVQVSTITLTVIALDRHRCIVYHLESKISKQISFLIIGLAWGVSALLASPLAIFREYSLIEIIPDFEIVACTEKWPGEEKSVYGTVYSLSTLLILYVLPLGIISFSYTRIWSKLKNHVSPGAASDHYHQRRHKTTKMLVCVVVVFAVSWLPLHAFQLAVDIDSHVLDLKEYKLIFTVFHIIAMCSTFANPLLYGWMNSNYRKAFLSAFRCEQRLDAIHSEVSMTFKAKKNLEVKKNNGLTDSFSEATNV
Procedure: Binding to Neuropeptide Y2
as §1, with “the hypoccampus” for “the cortex”, “of ten” for “of twenty”, “recentrifuged two” for “recentrifuged three”, “times.” for “times. The final membrane resuspension is performed in the buffer: 120 mM NaCl, 4.7 mM KCl, 2.2 mM CaCl2, 1.2 mM KH2PO4, 1.2 mM MgSO4, 25 mM NaHCO3, 5.5 mM glucose, 0.1% BSA, 0.05% bacitracin, pH 7.4, at a ratio of 20 ml/g fresh tissue.”, “with three” for “with two”

Cc1ccc2c(c1)COC(=O)N2C1CCN(CC(=O)Nc2ccc3c(c2)-c2ccccc2C3=O)CC1 (as salt: HCl) [Example 20, 1-{1-[N-(9-oxo-9H-fluoren-3-yl)aminocarbonylmethyl]-4-(piperidinyl)}-6-methyl-1,4-dihydro-2 H-3,1-benzoxazin-2-one hydrochloride]
melting point: 250 to 252 °C

Cc1ccc2c(c1)COC(=O)N2C1CCN(CC(=O)Nc2ccc3c(c2)-c2ccccc2C3=O)CC1 [Example 20, 1-{1-[N-(9-oxo-9H-fluoren-3-yl)aminocarbonylmethyl]-4-(piperidinyl)}-6-methyl-1,4-dihydro-2 H-3,1-benzoxazin-2-one hydrochloride]
Ki [1]: 0.87 nM | Effect on nocturnal ingestion: body weight of the animals ([2]; 40 mg/kg): reduces body | Effect on nocturnal ingestion: food intake ([2]; 40 mg/kg): Reduces food intake

O=C(CN1CCC(N2C(=O)OCc3ccccc32)CC1)Nc1ccc2c(c1)-c1ccccc1C2=O (as salt: HCl) [Example 3, 1-{1-[N-(9-oxo-9H-fluoren-3-yl)aminocarbonylmethyl]-4-(piperidinyl)}-1,4-dihydro-2H-3,1-benzoxazin-2-one hydrochloride]
melting point: > 275 °C

1-{1-[N-(9-oxo-9H-fluoren-3-yl)aminocarbonylmethyl]-4-(piperidinyl)}-8-methyl-1,4-dihydro-2H-3,1-benzoxazin-2-one hydrochloride [Example 35]
Effect on nocturnal ingestion: body weight of the animals ([2]; 20 mg/kg): reduces body | Effect on nocturnal ingestion: food intake ([2]; 20 mg/kg): Reduces food intake

O=C(CN1CCC(N2C(=O)OCc3ccccc32)CC1)Nc1ccc2c(c1)-c1ccccc1C2=O [Example 3, 1-{1-[N-(9-oxo-9H-fluoren-3-yl)aminocarbonylmethyl]-4-(piperidinyl)}-1,4-dihydro-2H-3,1-benzoxazin-2-one hydrochloride]
Ki [1]: 6.4 nM

O=C(CN1CCC(N2C(=O)OCc3ccccc32)CC1)Nc1ccc2c(c1)CCCC2=O (as salt: HCl) [Example 6, 1-{1-[N-(1-oxo-1,2,3,4-tetrahydronaphthalen-6-yl)aminocarbonylmethyl]-4-(piperidinyl)}-1,4-dihydro-2H-3,1-benzoxazin-2-one hydrochloride]
melting point: 260 to 264 °C

CCn1c2ccccc2c2cc(NC(=O)CN3CCC(N4C(=O)OCc5ccccc54)CC3)ccc21 [Example 18, 1-{1-[N-(9-ethyl-9H-carbazol-3-yl)aminocarbonylmethyl]-4-(piperidinyl)}-1,4-dihydro-2H-3,1-benzoxazin-2-one hydrochloride]
Effect on nocturnal ingestion: body weight of the animals ([2]; 40 mg/kg): reduces body | Effect on nocturnal ingestion: food intake ([2]; 40 mg/kg): Reduces food intake

O=C(CN1CCC(N2C(=O)OCc3ccccc32)CC1)Nc1ccc2c(c1)CCCC2=O [Example 6, 1-{1-[N-(1-oxo-1,2,3,4-tetrahydronaphthalen-6-yl)aminocarbonylmethyl]-4-(piperidinyl)}-1,4-dihydro-2H-3,1-benzoxazin-2-one hydrochloride]
Ki [1]: 18.4 nM | Ki [3]: > 1000 nM
